Source: patent US4931435A, “Agent with an antidepressant activity” (Boehringer Ingelheim KG, priority 1987, dated 1990)

Experiments:
[1] = system: ptosis induced by tetrabenazine; assay: Inhibition of ptosis induced by tetrabenazine in the mouse; type: in vivo; conditions: Control without tetrabenazine = 100%
isolated chicks = assay: chick call test: distress call activation in isolated one day old chicks (antidepressant activity); type: in vivo; conditions: Placebo = 100%
Excerpt: The call frequency of isolated one day old chicks, which decreases in the course of the test, is used as an experimental behavioral model of manifestations of resignation in depression, The method has been validated by tests on numerous neurotropically active substances; it is distinguished by its highly reproducible selectivity for antidepressants which are capable of reactivating the decreased call rate as a function of dosage. [distress call activation in isolated chicks; A new behavioral model for antidepressants, E. Lehr, Psychopharmacol. 89. […] Neurol. Psychiat.

mice = conditions: mouse, in vivo
Experimental: The test substances were dissolved in 0.9% NaCl solution.
**The animals in Group 2 were treated first with
1benzyl-4-aminomethyl-pyrrolidin-2-one FU and immediately afterwards
(about 10 to 15 seconds later) with imipramin.

[2] = system: Albino mice of the Chbb: NMRI strain; conditions: group 1 (m and f), i.v., mouse, dosage 100
Excerpt: Albino mice of the Chbb: NMRI strain
A 2% solution of 1-benzyl-4-aminomethyl-pyrrolidin-2-one fumarate and a 0.25% imipramin solution (pH=6.2) were used.

Row | SMILES | Inhibition of ptosis induced by tetrabenazine ([1]; 3 mg/kg p.o.) [%] | Increase in call rate in the second hour (isolated chicks; 10 mg/kg i.p.) [%] | Inhibition of ptosis induced by tetrabenazine ([1]; 3.5 mg/kg p.o.) [%] | effect of pretreatment on the toxic effect of imipramin (mice) | Lethality dead/treated animals [2] | Increase in call rate in the second hour (isolated chicks; 5 mg/kg i.p.) [%]
1 | CN(C)CCCN1c2ccccc2CCc2ccccc21 [Compound A, 10,11-dihydro-N,N-dimethyl-5H-dibenz[b,f]-azepin-5-propanamine, reference compound] | 12 | 131 |  |  |  | 
2 | NCC1CC(=O)N(Cc2ccccc2)C1 (stereo not drawn) [Compound B, 1-benzyl-4-aminomethyl-pyrrolidin-2-one] |  |  | 48 | toxic effect of imipramin is reduced | 0/10 | 284
